Where two headings read alike, the source gives them in different places.
Assays:
[1] = tested on: HCV Conl subgenomic replicon (GS4.1 cells); assay: HCV replicon assay (NS4A ELISA, HCV ELISA 2); format: cell-based; details: Hepatitis C virus
Protocol: (§1) Huh-7 cells containing HCV Conl subgenomic replicon (GS4.1 cells), (C. Seeger; Fox Chase University, Philadelphia, Pa., USA), are grown in Dulbecco's Modified Eagle Medium (DMEM) supplemented with 10% fetal bovine serum (FBS), 2 mM L-glutamine, 110 mg/L sodium pyruvate, 1×non-essential amino acids, 100 U/mL penicillin-streptomycin and 0.5 mg/mL G418 (Invitrogen). For dose-response testing, the cells are seeded in 96-well plates at 7.5×10^3 cells/well in a volume of 50 μL and incubated at 37° C./5% CO2. Three hours after plating, 50 μL of ten 2-fold serial dilutions of compounds (highest concentration, 75 μM) are added and cell cultures were incubated at 37° C./5% CO2 in the presence of 0.5% DMSO. Alternatively, compounds are tested at a single concentration of 15 μM. In all cases, Huh-7 cells lacking the HCV replicon served as negative control. The cells are incubated in the presence of compounds for 72 hours after which they were monitored for expression of the NS4A protein by enzyme-linked immunosorbent assay (ELISA). For this, the plates were then fixed for 1 min with 1:1 acetone:methanol, washed twice with phosphate-buffered saline (PBS), 0.1% Tween 20, blocked for 1 hour at room temperature with TNE buffer containing 10% FBS and then incubated for 2 h at 37° C. with the anti-NS4A mouse monoclonal antibody A-236 (ViroGen) diluted in the same buffer. After washing three times with PBS, 0.1% Tween 20, the cells are incubated 1 hour at 37° C. with anti-mouse immunoglobulin G-peroxidase conjugate in TNE, 10% FBS. After washing as described above, the reaction is developed with O-phenylenediamine (Zymed). The reaction is stopped after 30 minutes with […] and the absorbance is read at 492 nm using a Sunrise Tecan spectrophotometer. EC50 values are determined from the % inhibition versus concentration data using a sigmoidal non-linear regression analysis based on four parameters with Tecan Magellan software. […] For cytotoxicity evaluation, GS4.1 cells are treated with compounds as described above and cellular viability was monitored using a Cell Titer 96 AQueous One Solution Cell Proliferation Assay (Promega). CC50 values are determined from the % cytotoxicity versus concentration data with Tecan Magellan software as described above.

[2] = Cytotoxicity evaluation in GS4.1 cells (Cell Titer 96 AQueous One Solution); format: cell-based; details: human; for CC50: 72 hours
Protocol: as §1

[3] = GS4.1 cells, 72 hours, NS4A ELISA, read-out: HCV ELISA 2 EC50
[4] = 72 h, read-out: HCV ELISA 2 EC50 (μM)

Row | SMILES | EC50 [1, 3] | CC50 [2] | EC50 [1, 4] | CC50 at 72 h [2]
1 | CC(C)(CO)C(=O)SCCOP(=O)(NCc1ccccc1)OC[C@H]1O[C@@H](n2cnc3c(=O)[nH]cnc32)[C@](C)(O)[C@@H]1O (mixture of isomers) [Example B186, Hydroxy-tBuSATE N-benzylphosphoramidate Derivative of 2′-C-methylinosine] | 1 to 10 µM | > 75 µM |  | 
2 | CCCCN(CCCC)P(=O)(OCCSC(=O)C(C)(C)CO)OC[C@H]1O[C@@H](n2ccc(N)nc2=O)[C@](C)(O)[C@@H]1O (mixture of isomers) [Example B244, Hydroxy-tBuSATE N,N-(dibutylamine)phosphoramidate Derivative of 2′-C-methylcytidine] |  |  | > 10 µM | > 75 µM
3 | CC(C)(CO)C(=O)SCCOP(=O)(NCc1ccccc1)OC[C@H]1O[C@@H](n2cnc3c(N)ncnc32)[C@](C)(O)[C@@H]1O (mixture of isomers) [Example B263, Hydroxy-tBuSATE N-benzylphosphoramidate Derivative of 2′-C-methyladenosine] | 1 to 10 µM | > 75 µM |  | 
4 | CC(C)(CO)C(=O)SCCOP(=O)(NCc1ccccc1)OC[C@H]1O[C@@H](n2cnc3c(=O)[nH]c(N)nc32)[C@](C)(O)[C@@H]1O (mixture of isomers) [Example B299, Hydroxy-tBuSATE N-benzylphosphoramidate Derivative of 2′-C-methylguanosine] | < 1 µM | > 75 µM |  | 
5 | CN(Cc1ccccc1)P(=O)(OCCSC(=O)C(C)(C)CO)OC[C@H]1O[C@@H](n2ccc(N)nc2=O)[C@](C)(O)[C@@H]1O (mixture of isomers) [Example B308, Hydroxy-tBuSATE N-methylbenzylphosphosphoramidate Derivative of 2′-C-methyl-cytidine] |  |  | 1 to 10 µM | > 75 µM
6 | CC(C)(CO)C(=O)SCCOP(=O)(OC[C@H]1O[C@@H](n2ccc(N)nc2=O)[C@](C)(O)[C@@H]1O)N1CCCCC1 (mixture of isomers) [Example B353, Hydroxy-tBuSATE N-piperidinephosphosphoramidate Derivative of 2′-C-methyl-cytidine] |  |  | > 10 µM | > 75 µM
7 | CC(C)(CO)C(=O)SCCOP(=O)(OC[C@H]1O[C@@H](n2ccc(N)nc2=O)[C@](C)(O)[C@@H]1O)N1CCOCC1 (mixture of isomers) [Example B391, Hydroxy-tBuSATE N-morpholinophosphosphoramidate Derivative of 2′-C-methylcytidine] |  |  | > 10 µM | > 75 µM
8 | CC(C)(CO)C(=O)SCCOP(=O)(OC[C@H]1O[C@@H](n2ccc(N)nc2=O)[C@](C)(O)[C@@H]1O)N1CCCC1 (mixture of isomers) [Example B395, Hydroxy-tBuSATE N-pyrrolidinephosphosphoramidate Derivative of 2′-C-methylcytidine] |  |  | 1 to 10 µM | > 75 µM
9 | CC(C)(CO)C(=O)SCCOP(=O)(NCc1ccccc1)OC[C@H]1O[C@@H](n2cc(F)c3c(N)ncnc32)[C@](C)(O)[C@@H]1O (mixture of isomers) [Example B436, Hydroxy-tBuSATE N-benzylphosphoramidate Derivative of 2′-C-methyl-7-deaza-7-fluoro-adenosine] | 1 to 10 µM | > 75 µM |  | 
10 | CC(=O)Nc1ccn([C@@H]2O[C@H](COP(=O)(NCc3ccccc3)OCCSC(=O)C(C)(C)CO)[C@@H](O)[C@@]2(C)O)c(=O)n1 (stereo in doubt) [Example B183, Hydroxy-tBuSATE N-benzylphosphoramidate Derivative of 2′-C-methyl-NH-4-acetyl-cytidine] | > 10 µM | > 75 µM |  | 
11 | CC(C)(CO)C(=O)SCCOP(=O)(NCc1ccccc1C(F)(F)F)OC[C@H]1O[C@@H](n2ccc(N)nc2=O)[C@](C)(O)[C@@H]1O (stereo in doubt) [Example B187, Hydroxy-tBuSATE N-(2-(trifluoromethyl)benzyl)phosphosphoramidate Derivative of 2′-C-methylcytidine] | 1 to 10 µM | > 75 µM |  | 
12 | CCCCCCCCN(C)P(=O)(OCCSC(=O)C(C)(C)CO)OC[C@H]1O[C@@H](n2ccc(N)nc2=O)[C@](C)(O)[C@@H]1O (stereo in doubt) [Example B204, Hydroxy-tBuSATE N-(n-methyl-n-octyl-amine)phosphosphoramidate Derivative of 2′-C-methylcytidine] |  |  | 1 to 10 µM | > 75 µM
13 | CC(C)(CO)C(=O)SCCOP(=O)(NCc1ccc(C(F)(F)F)cc1)OC[C@H]1O[C@@H](n2cnc3c(=O)[nH]c(N)nc32)[C@](C)(O)[C@@H]1O (stereo in doubt) [Example B242, O-(Hydroxy-tert-butyl-S-acyl-2-thioethyl)-2′-C-methylguanosin-5′-yl-N-(4-trifluoromethyl)-benzylaminyl Phosphate] | < 1 µM | > 75 µM |  | 
14 | CC(C)(CO)C(=O)SCCOP(=O)(NCc1ccccc1)OC[C@H]1O[C@@H](n2cnc3c(=O)[nH]c(N)nc32)[C@]2(C)OC(=O)O[C@H]12 (stereo in doubt) [Example B307, N-Benzylaminyl-O-(hydroxy-tert-butyl-S-acyl-2-thioethyl)-2′,3′-O-carbonate-2′-C-methylguanosin-5′-yl phosphate] | < 1 µM | > 75 µM |  | 
15 | CC(C)(CO)C(=O)SCCOP(=O)(NC1CCCCC1)OC[C@H]1O[C@@H](n2ccc(N)nc2=O)[C@](C)(O)[C@@H]1O (stereo in doubt) [Example B354, Hydroxy-tBuSATE N-cyclohexylaminephosphosphoramidate Derivative of 2′-C-methyl-cytidine] | 1 to 10 µM | > 75 µM |  | 
16 | CC(=O)O[C@@H]1[C@@H](COP(=O)(NCc2ccccc2)OCCSC(=O)C(C)(C)CO)O[C@@H](n2ccc(N)nc2=O)[C@]1(C)OC(C)=O (stereo in doubt) [Example B390, Hydroxy-tBuSATE N-benzylphosphoramidate Derivative of 2′-C-methyl-2′,3′-di-O-acetyl-cytidine] | > 10 µM | > 75 µM |  | 
17 | CC(C)(CO)C(=O)SCCOP(=O)(NCc1ccc(C(F)(F)F)cc1)OC[C@H]1O[C@@H](n2ccc(N)nc2=O)[C@](C)(O)[C@@H]1O (stereo in doubt) [Example B399, Hydroxy-tBuSATE N-(4-(trifluoromethyl)benzyl)phosphosphoramidate Derivative of 2′-C-methylcytidine] | 1 to 10 µM | > 75 µM |  | 
18 | C#C[C@@]1(F)[C@H](O)[C@@H](COP(=O)(NCc2ccccc2)OCCSC(=O)C(C)(C)CO)O[C@H]1n1cnc2c(=O)[nH]c(N)nc21 (stereo in doubt) [Example B503, N-Benzylaminyl-{9-[(2R)2-deoxy-2-fluoro-2-C-ethynyl-β-D-erythro-furanosyl]-guanin}-5′-yl-O-(hydroxy-tert-butyl-S-acyl-2-thioethyl) Phosphate] | 1 to 10 µM | > 75 µM |  | 
19 | C[C@@]1(O)[C@H](O)[C@@H](CO)O[C@H]1n1cnc2c(N)ncnc21 [A374 (NM80), 2′-C-methyladenosine, reference compound] | < 1 µM | ≤ 75 µM |  | 
20 | C[C@@]1(O)[C@H](O)[C@@H](CO)O[C@H]1n1ccc(N)nc1=O [A634 (NM107), 2′methyl cytidine, reference compound] | 1 to 10 µM | > 75 µM |  | 
21 | C[C@@]1(O)[C@H](O)[C@@H](CO)O[C@H]1n1cnc2c(=O)[nH]c(N)nc21 [A844 (NM 108), 2′-C-methylguanosine, reference compound] | 1 to 10 µM | > 75 µM |  | 

Source: patent US7951789B2 (priority 2006, dated 2011)
